The assay concerns the target T1, human sEH enzyme (Homo sapiens, UniProt P34913).
T1 construct: His-tag (N, cleaved yes); made in house; host or cells: E. coli (pET100 vector)
T1 sequence (P34913 1-555): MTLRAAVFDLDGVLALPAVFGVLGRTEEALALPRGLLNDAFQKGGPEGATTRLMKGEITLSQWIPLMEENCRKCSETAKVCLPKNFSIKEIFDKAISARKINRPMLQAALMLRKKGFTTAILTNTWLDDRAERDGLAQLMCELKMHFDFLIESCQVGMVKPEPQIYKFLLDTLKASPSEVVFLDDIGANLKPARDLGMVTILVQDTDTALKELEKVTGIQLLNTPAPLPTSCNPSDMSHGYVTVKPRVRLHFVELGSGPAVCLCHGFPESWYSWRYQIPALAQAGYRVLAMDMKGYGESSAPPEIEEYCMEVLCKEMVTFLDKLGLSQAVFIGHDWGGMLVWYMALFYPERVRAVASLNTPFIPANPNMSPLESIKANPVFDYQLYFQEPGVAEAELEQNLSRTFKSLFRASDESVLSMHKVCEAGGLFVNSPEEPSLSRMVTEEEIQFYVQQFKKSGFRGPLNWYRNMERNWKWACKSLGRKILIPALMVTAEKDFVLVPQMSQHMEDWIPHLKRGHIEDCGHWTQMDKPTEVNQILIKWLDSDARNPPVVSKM
Kind of assay: sEH Human Enzyme Assay (fluorescence based enzyme in vitro assay). Format: biochemical. Particulars: recombinant full length human sEH about 1 nM, fluorescence substrate S7 10 uM, pH7.0, 25° C.; read-out: IC50 [nM] for human sEH enzyme inhibition. From the text:
Preparation of Recombinant sEH Human Enzyme
The DNA for expressing sEH was designed based on a […] sEH cDNA, modified to optimize for expression both in E. coli and insect cells. The designed DNA fragment encodes a protein sequence that is identical to full length human sEH, and the DNA was synthesized in vitro. The DNA was then subcloned into the pET100 vector that will generate a fusion protein with an N-terminal His-tag. The recombinant protein was expressed in E. coli. The sEH enzyme was affinity purified by a Ni^++ column. His-tag was removed by Enter Kinase (EK) digestion. The purified enzyme aliquots were frozen and held at −80° C. for later use.
Fluorescence Based Enzyme In Vitro Assay,
For each assay (100 ul), an aliquot of enzymes (about 1 nM final concentration) was incubated with a fluorescence substrate, S7 (10 uM final concentration), in sEH assay buffer (25 mM HEPES, pH7.0, 0.1 mg/ml BSA) in a 96-well plate. The kinetic reaction reading (Ex330/Em465) was conducted using a plate reader, Spectra max (Molecular Devices) at 25° C.
For orientation: IC50 means the concentration at which inhibition is half-maximal. As for `O=C(Nc1ccc(C(F)(F)F)cc1)N1C2CCC1C(c1cccnc1)C2` (stereo not shown) [Example 11], the IC50 came to 11 nM. For `Cc1noc(C2CC3CCC2N(C(=O)Nc2ccc(C(F)(F)F)cc2)C3)n1` (stereo not shown) [Example 2], the IC50 was determined as 2 nM. As for `CCc1noc(C2CC3CCC(C2)N3C(=O)Nc2ccc(C(F)(F)F)cc2)n1` (stereo not shown) [Example 5], the IC50 was 2 nM. For `CN(C)c1noc(C2CC3CCC2N(C(=O)NC2CC2c2ccccc2)C3)n1` (stereo not shown) [Example 13], the IC50 amounted to 51 nM. Regarding `O=C(Nc1ccc(C(F)(F)F)cc1)N1C2CCC1C(c1cccnc1)C2` (stereo not shown) [Example 12], the IC50 came to 41 nM. `CN(C)c1noc(C2CC3CCC2N(C(=O)Nc2ccc(C(F)(F)F)cc2)C3)n1` (stereo not shown) [Example 6]: the half-maximal inhibitory concentration (IC50) was 1 nM. For the molecule `Cc1noc(C2(C)CC3CCC2N(C(=O)NC2CC2c2ccccc2)C3)n1` (stereo not shown) [Example 16], the IC50 was 30 nM. Take `CCc1noc(C2CC3CC2N(C(=O)NC2CC2c2ccccc2)C3)n1` (stereo not shown) [Example 17]: the IC50 is 48 nM. With `Cc1noc(C2(C)CC3CCC2N(C(=O)Nc2ccc(C(F)(F)F)cc2)C3)n1` (stereo not shown) [Example 3], the IC50 is 2 nM. `Cn1cc(-c2noc([C@@H]3C[C@H]4CC[C@H]3CN4C(=O)NC3CC3c3ccccc3)n2)c2ccccc21` (stereo partly shown) [Example 19]: the IC50 came out at 4 nM. `Cn1cc(-c2noc(C3(C)CC4CCC3N(C(=O)NC3CC3c3ccccc3)C4)n2)c2ccccc21` (stereo not shown) [Example 20]: the IC50 was determined as 8 nM. Consider `O=C(Nc1ccc(Cl)cc1)N1CC2(c3ccccc3)CCC1C2` (stereo not shown) [Example 10], for which the IC50 was 1 nM. As for `CCOc1noc(C2CC3CCC2N(C(=O)Nc2ccc(C(F)(F)F)cc2)C3)n1` (stereo not shown) [Example 7], the figure is 2 nM. For the molecule `O=C(Nc1ccc(C(F)(F)F)cc1)N1CC2(c3ccccc3)CCC1CC2` [Example 9], the IC50 amounted to 1 nM. On to `O=C(NC1CC1c1ccccc1)N1CC2CCC1C(c1nc(C(c3ccccc3)c3ccccc3)no1)C2` (stereo not shown) [Example 18], for which the IC50 is 6 nM. For the molecule `CC(c1ccccc1)c1noc(C2CC3CCC2N(C(=O)Nc2ccc(C(F)(F)F)cc2)C3)n1` (stereo not shown) [Example 4], the IC50 worked out at 8 nM. Regarding `Cc1noc(C2CC3CC2N(C(=O)Nc2ccc(C(F)(F)F)cc2)C3)n1` (stereo not shown) [Example 1], the IC50 stood at 7 nM. `CCOc1noc(C2CC3CCC2N(C(=O)NC2CC2c2ccccc2)C3)n1` (stereo not shown) [Example 15]: the IC50 came out at 14 nM. In the case of `O=C(NC1CC1c1ccccc1)N1CC2CCC1C(c1nc(C3CC3)no1)C2` (stereo not shown) [Example 14], the IC50 came out at 18 nM.
